Legend:
[1] = test system: hPSC-derived neural tube (neural folding morphogenesis); assay: Modeling neural tube defects in the stem-cell derived neural tube morphogenesis system; type: cell-based, human; conditions: for neural apical curvature / neural tissue morphology (thickness, hinges): treated samples vs control samples, ROCK inhibitor 10 μM day 5-8
Description: Because animal models are limited in their capacity to explain how human genetics affects neural tube closure, it was tested whether the reproducible human stem-cell system could be used to model neural tube defects (NTDs). This example focuses on various compounds that induce NTDs: ROCK inhibitor, novobiocin, and valproic acid (FIG. 24). […] In turn, ROCK upregulates apical actomyosin contractility in neural cells which leads to apical constriction of the neural plate. Neural plate contraction then drives neural folding. It was thus set out to determine whether apical contractility plays a role during in vitro neural folding. […] The formation of an actomyosin gradient is followed by apical neural contraction which leads to folding.
To perturb ROCK/Shroom3 signaling and apical neural contractility a highly specific molecular inhibitor of ROCK (Y-27632) was applied. […] The effects of novobiocin and valproic acid were also examined. […] It was further concluded that the in vitro lumen model system is suitable for studying how abnormalities in signaling pathways lead to neural tube defects in a human genetic context.
Day 1. Seeding onto micropatterns. hPSCs are released from well-plate surfaces using non-enzymatic agitation following manufacturer's instructions (ReleSR, STEMCELL Technologies, Cambridge, MA). Cells are resuspended as a single-cell suspension at densities of 750K-1M cells/mL in mTeSR1 containing 10 μM ROCK inhibitor Y27632 (Abcam, Cambridge, UK). 200 μL of cell suspension is then pipetted onto prepatterned dishes and allowed to settle for 15 minutes before adding 1 mL of mTeSR1 and allowing cells to settle for 10 additional minutes. Excess media is aspirated, leaving enough liquid to cover patterns and replaced with fresh 2 mL of mTeSR until the following day.
Day 2. Matrigel addition. mTESR1 media is exchanged with a neural induction media containing Matrigel (4%, v/v). Neural induction media is supplemented with 5 μM of TGFβ-inhibitor SB-431542.
Day 3-4. Lumen Formation. Dishes are left unperturbed at day 3 to allow transition into 3D stem-cell tissue containing a single lumen.
Day 5-9. Exposure to Morphogens. Neural induction media is supplemented with 5 ng/ml BMP4 in addition to 5 μM of SB-431542. Media is exchanged daily. Cell fates are observed on day 6 and folding is observed during days 7-9.
All samples were fixed, immunostained and imaged as whole mounts in the culture dish. Samples are fixed in 4% PFA, 1 hr at room temperature (RT), washed three times for 15 min in PBS, and permeabilized in 1.5% Triton-PBS over-night (o/n) at 4 C. The following day, samples are washed in 0.3% Triton, and blocked for 2 hrs RT (10% NGS, 1% BSA, 0.3% Triton-X in PBS). Primary antibodies are used at 1:100-1:200 in blocking solution o/n at 4° C. Next, samples are washed in 0.1% Tween in PBS, and incubated with secondary antibodies 1:500-1:1000 in PBT o/n at 4° C. DAPI and phalloidin are also added at this stage. Finally, samples are washed in PBS for 1 hr, and imaged.
ROCK inhibition is achieved using the small molecule Y-27632 reconstituted in water at a stock concentration of 10 mM. ROCK inhibitor was applied at a concentration of 10 μM (1:1000 dilution) at day 5, together with BMP, and maintained for 72 hrs until the end of the experiment at day 8. Media was changed daily. Control experiments were carried under identical conditions, adding water instead of ROCK inhibitor.

3D hPSC = assay: BMP4 exposure of micropatterned 3D hPSC without neural induction (immunostaining, qPCR); type: cell-based, human
From the text: FIG. 9 provides a schematic representing in vitro morphogenesis in three differentiation protocols in accordance with embodiments. (i) Exposure to BMP, without neural induction, results in an amnion-like tissue containing cells from three germ layers without formation of a neural fold. (ii) Neural tube morphogenesis is observed when neural induction is followed by exposure to BMP4. (iii) Homogenous expression of forebrain markers is observed under exposure to neural induction without BMP.
FIG. 10 provides a schematic and results of the experimental timeline for three protocols detailed in FIG. 9. (B) Experimental timeline for the three protocols. Neural induction media includes N2 supplement and TGFβ inhibitor SB-431542 (SB). (C) Vertical sections of immunostained samples from the three differentiation protocols.
FIG. 19 provides a schematic, images, and bar graph of cellular differentiation in the absences of neural induction in which no neural folding is observed, in accordance with embodiments. (A) Experimental timeline for BMP4 exposure without neural induction. (B) Bright field images showing development over 3 days. At day 4, cells migrate away from the micropatterned area. (C) Horizonal and (D) vertical sections of samples at day 3. Micropattern diameter is indicated in microns. Cells close to the glass express mesendoderm markers Brachyury (BRA) and SOX17. In 450 μm patterns, SOX2 is observed at the center of the tissue. Cells at the colony edges and at the top express amniotic ectoderm marker CDX2. A single lumen is maintained and no spontaneous folding is observed. (E) qPCR analysis for differentiation markers as a function of BMP concentration. BMP results in upregulation of the WNT and NODAL pathways, upregulation of mesendoderm markers EOMES/Brachyury/SOX17, amniotic ectoderm marker GATA3, downregulation of ectoderm marker SOX2 and pluripotency marker NANOG. Scale bar 50 μm unless indicated otherwise.
The system was next applied to study which tissues contribute to neural folding. This question has been studied for over a century in animal models, and multiple hypothesis have been developed regarding the mechanical role of the neural tissue, neighboring surface ectoderm and underlying mesoderm. However, the limited accessibility in utero led to inconclusive and often contradictive results. The in vitro system allows to systemically control tissue composition through the choice of small molecules in the culture media (FIGS. 9 & 10). This system allows discernment of the tissues which are necessary and sufficient for neural tube morphogens. […] Mesoderm fates are suppressed by TGFβ inhibition, and only appear if the period of TGFβ inhibition is decreased (FIG. 17). […] It was next examined whether the non-neural ectoderm is required for folding. […]

[2] = ROCK inhibition, Y-27632 10 μM day 5-8, vs control
[3] = as a function of BMP concentration, no neural induction

Row | Molecule | Shroom3 and F-actin localization to the apical neural surface [1, 2] | actin localization to the basal surface of epidermal/neural tissues and the epidermal apical surface [1, 2] | neural folding morphology ([1]; Y-27632 10 μM applied at day 5 together with BMP, maintained 72 hrs until day 8, vs control (water)) | neural apical curvature [1] | neural tissue morphology (thickness, hinges) [1] | cell fates and folding morphogenesis (3D hPSC; addition of BMP4 without neural induction) | qPCR: WNT and NODAL pathways (3D hPSC; [3]) | qPCR: ectoderm marker SOX2 and pluripotency marker NANOG (3D hPSC; [3]) | qPCR: mesendoderm markers EOMES/Brachyury/SOX17, amniotic ectoderm marker GATA3 (3D hPSC; [3])
1 | C[C@@H](N)[C@H]1CC[C@H](C(=O)Nc2ccncc2)CC1 [Y-27632] | disrupted | not significantly perturbed | severe folding defects similar to the open book morphology observed in embryonic cranial NTDs | significantly less curved than control samples | thick and flat neural tissue, which lacks neural hinges | – | – | – | –
2 | CO[C@@H]1[C@@H](OC(N)=O)[C@@H](O)[C@H](Oc2ccc3c(O)c(NC(=O)c4ccc(O)c(CC=C(C)C)c4)c(=O)oc3c2C)OC1(C)C [novobiocin] | – | – | – | significantly less curved than control samples | thick and flat neural tissue, which lacks neural hinges | – | – | – | –
3 | CCCC(CCC)C(=O)O [valproic acid] | – | – | – | significantly less curved than control samples | thick and flat neural tissue, which lacks neural hinges | – | – | – | –
4 | BMP4: bone morphogenetic protein 4, morphogen | – | – | – | – | – | mesoderm and ectoderm cell fates, but lack neural tissue and does not exhibit folding | upregulation | downregulation | upregulation

From patent publication US20240287430A1, “Systems and Methods for Cellular Lumen Formation and Cellular Differentiation” (The Regents of the University of California, priority 2021, published 2024)
